pIC50: −log10 of the molar value.
Columns and labels:
Brain = experiment: Increase in 2-arachidonoylglycerol level in mouse brain relative to untreated control; format: functional
[1] = Inhibition of MAGL
Mus musculus = organism: Mus musculus; experiment: Inhibition of MAGL in mouse brain; format: tissue-based; details: dose or concentration not given here

## O=C(Oc1ccc([N+](=O)[O-])cc1)N1CCC(C(O)(c2ccc3c(c2)OCO3)c2ccc3c(c2)OCO3)CC1
Brain
  fold change (FC): 8
[1]
  pIC50: 8.10
Mus musculus
  inhibition: 85%
